From US6653460B1 (priority 1996, dated 2003)

What was measured:
[1] = tested on: calcium current (carried by barium) in neurohypophysial terminals; type: cell-based, rat
[2] = target: T1, class E calcium channels (192C cells) (Homo sapiens, UniProt Q15878); type: cell-based
T1 construct: expressed in transfected cells; host or cells: HEK 293 (192C cells)
T1 sequence (Q15878 whole entry): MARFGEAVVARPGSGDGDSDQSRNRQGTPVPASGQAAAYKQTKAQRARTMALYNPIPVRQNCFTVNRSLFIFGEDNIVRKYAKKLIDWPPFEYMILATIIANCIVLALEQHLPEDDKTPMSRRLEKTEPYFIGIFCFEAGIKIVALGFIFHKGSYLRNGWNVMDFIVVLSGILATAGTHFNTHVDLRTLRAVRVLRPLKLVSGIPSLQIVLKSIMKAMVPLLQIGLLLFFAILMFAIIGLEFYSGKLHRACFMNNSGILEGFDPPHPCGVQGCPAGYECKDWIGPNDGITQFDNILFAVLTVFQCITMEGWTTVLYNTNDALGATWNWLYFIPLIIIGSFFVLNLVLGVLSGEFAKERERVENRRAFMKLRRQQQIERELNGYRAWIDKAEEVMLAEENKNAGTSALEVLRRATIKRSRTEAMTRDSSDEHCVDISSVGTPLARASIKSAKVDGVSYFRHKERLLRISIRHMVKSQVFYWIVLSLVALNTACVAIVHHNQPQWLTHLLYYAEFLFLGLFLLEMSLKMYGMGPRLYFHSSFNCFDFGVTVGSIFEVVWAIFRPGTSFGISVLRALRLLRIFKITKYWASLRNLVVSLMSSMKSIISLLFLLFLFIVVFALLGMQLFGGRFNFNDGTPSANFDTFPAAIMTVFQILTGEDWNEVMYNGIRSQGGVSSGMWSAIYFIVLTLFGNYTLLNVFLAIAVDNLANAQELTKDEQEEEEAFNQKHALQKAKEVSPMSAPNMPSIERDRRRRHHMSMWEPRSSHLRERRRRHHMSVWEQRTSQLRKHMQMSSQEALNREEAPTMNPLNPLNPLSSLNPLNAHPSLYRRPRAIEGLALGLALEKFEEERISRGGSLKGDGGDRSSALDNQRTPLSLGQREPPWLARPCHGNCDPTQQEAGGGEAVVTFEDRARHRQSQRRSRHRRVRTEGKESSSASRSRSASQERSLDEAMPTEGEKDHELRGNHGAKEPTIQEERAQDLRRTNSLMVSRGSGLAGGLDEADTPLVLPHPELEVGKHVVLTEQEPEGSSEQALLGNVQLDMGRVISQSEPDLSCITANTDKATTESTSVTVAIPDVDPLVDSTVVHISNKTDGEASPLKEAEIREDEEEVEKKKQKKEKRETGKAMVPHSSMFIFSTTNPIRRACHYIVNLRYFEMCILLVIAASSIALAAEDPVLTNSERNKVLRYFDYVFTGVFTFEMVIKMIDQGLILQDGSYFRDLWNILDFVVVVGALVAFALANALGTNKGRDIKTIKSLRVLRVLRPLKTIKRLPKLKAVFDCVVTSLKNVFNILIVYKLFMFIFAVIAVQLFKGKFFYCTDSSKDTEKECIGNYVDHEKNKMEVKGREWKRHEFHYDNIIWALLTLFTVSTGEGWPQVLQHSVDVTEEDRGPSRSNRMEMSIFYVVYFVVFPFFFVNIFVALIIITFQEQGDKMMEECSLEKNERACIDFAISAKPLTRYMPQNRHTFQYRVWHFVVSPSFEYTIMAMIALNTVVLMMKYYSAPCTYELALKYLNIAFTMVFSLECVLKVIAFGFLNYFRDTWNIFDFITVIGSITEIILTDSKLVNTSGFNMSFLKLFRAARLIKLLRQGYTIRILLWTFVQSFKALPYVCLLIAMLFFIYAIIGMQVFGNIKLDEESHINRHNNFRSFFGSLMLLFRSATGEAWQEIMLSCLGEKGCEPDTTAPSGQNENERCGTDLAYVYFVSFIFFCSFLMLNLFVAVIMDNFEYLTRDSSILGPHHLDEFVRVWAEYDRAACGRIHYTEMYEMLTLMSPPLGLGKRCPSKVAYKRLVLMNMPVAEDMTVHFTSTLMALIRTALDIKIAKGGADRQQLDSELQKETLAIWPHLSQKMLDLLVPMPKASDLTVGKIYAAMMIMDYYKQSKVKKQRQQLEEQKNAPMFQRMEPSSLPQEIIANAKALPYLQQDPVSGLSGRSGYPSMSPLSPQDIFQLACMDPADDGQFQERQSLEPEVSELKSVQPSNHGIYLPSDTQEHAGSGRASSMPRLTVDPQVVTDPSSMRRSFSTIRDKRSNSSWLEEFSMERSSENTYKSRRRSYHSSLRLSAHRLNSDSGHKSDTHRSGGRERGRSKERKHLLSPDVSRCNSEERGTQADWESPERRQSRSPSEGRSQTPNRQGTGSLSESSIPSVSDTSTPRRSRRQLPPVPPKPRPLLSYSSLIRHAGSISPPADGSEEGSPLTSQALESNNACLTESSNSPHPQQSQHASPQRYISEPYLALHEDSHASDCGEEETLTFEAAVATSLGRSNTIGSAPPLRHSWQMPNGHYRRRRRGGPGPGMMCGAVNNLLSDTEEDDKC

For `CSCC[C@@H]1NC(=O)[C@H](CC(C)C)NC(=O)[C@H](CCCNC(=N)N)NC(=O)[C@H](CO)NC(=O)[C@@H]2CSSC[C@@H]3NC(=O)[C@H](CO)NC(=O)CNC(=O)[C@H]([C@@H](C)O)NC(=O)[C@H](CSSC[C@H](N)C(=O)N[C@@H](CCCCN)C(=O)NCC(=O)N[C@@H](CCCCN)C(=O)NCC(=O)N[C@@H](C)C(=O)N[C@@H](CCCCN)C(=O)N2)NC(=O)[C@H](CSSC[C@@H](C(N)=O)NC(=O)[C@H](CCCCN)NC(=O)CNC(=O)[C@H](CO)NC(=O)[C@H](CCCNC(=N)N)NC3=O)NC(=O)[C@H](CC(=O)O)NC(=O)[C@H](Cc2ccc(O)cc2)NC1=O` [SNX-111], the “block of current remaining after nicardipine” value [1] was “blocked part but not all of the remaining current” and the “sensitivity of depolarization evoked increase in internal calcium” value [2] was “resistant”.
